Measured values from patent US20200338028A1, “BENZENESULFONAMIDE DERIVATIVES AND METHOD FOR MODULATING LIPID RAFT” (Gongwin Biopharm Co., Ltd., priority 2017, published 2020).
Where two headings read alike, the source gives them in different places.

What was measured:
[1] = system: PC-3 cells; test: SRB assay, anti-proliferative effect; assay type: cell-based; settings: Homo sapiens
Method: Two castration-resistant prostate cancer (CRPC) cell lines of PC-3 and DU-145 were cultured in RPMI 1640 medium with 5% FBS (v/v), penicillin (100 units/ml) and streptomycin (100 μg/ml). Cultures were maintained in a 37° C. incubator with 5% CO2, and adherent cultures were passaged using 0.05% trypsin-EDTA when they reached about 80% confluence. Prostate cells were from human tissue samples which were obtained following informed consent of the donors and after full review by the Ethics Review Committee at National Taiwan University Hospital. The prostate specimens were from males by transurethral resection of the prostate. All patients with prostatism histories were diagnosed to have benign prostate hyperplasia by rectal digital examination, transrectal sonography of prostate and urodynamic studies. Isolation of human prostatic cells from prostatic tissue explants was described in the previous study. The prostate cells were with less amount lipid rafts compared to prostate cancer cells.
SRB assay, colonogenic assay, and carboxyfluorescein succinimidyl ester (CFSE) staining were used for anti-proliferative determination. SRB assay is an accurate and reproducible assay based upon quantitative SRB staining of cellular proteins, and the process for SRB assay was performed as follows. Each individual PC-3 and DU-145 cells were seeded in 96-well plates in medium with 10% FBS. After 24 h, PC-3 and DU-145 cells were fixed with 10% TCA to represent cell population at the time of p-TSA addition. […] The absorbance of SRB was measured at a wavelength of 515 nm at the time of p-TSA addition (hereinafter referred to as time zero, TZ), and after additional incubation of DMSO (hereinafter referred to as control growth, CTL) or p-TSA (hereinafter referred to as Tx). The percentage of cell growth inhibition was calculated by the formula of [1−(Tx−TZ)/(CTL−TZ)]×100%. […]
To further substantiate the role of Akt, the Myr-Akt overexpressed PC-3 cells were prepared with the method shown as follows. […] Furthermore, the functional rescue of Myr-Akt was determined. […]

[2] = system: DU-145 cells; test: Western blot of Bcl-2 family members, cell cycle regulators and Akt/mTOR/p70S6K pathway signals; assay type: cell-based, human
Method: (§1) In addition, protein expression assay of each Mcl-1, Bcl-2, Bid, PUMA and Bak was performed by western blotting with methods described as follows. After treatment of PC-3 and DU145 cells with p-TSA, the cells were harvested with trypsinization, centrifuged and lysed in 0.1 ml of lysis buffer containing 10 mM Tris-HCl (pH 7.4), 150 mM NaCl, 1 mM EGTA, 1% Triton X-100, 1 mM PMSF, 10 μg/ml leupeptin, 10 μg/ml aprotinin, 50 mM NaF and 100 μM sodium orthovanadate. Total protein was quantified, mixed with the sample buffer and boiled at 90° C. for 5 min. Equal amount of protein (30 μg) was separated by electrophoresis in 8% or 12% SDS-PAGE, transferred to PVDF membranes and detected with specific antibodies (1:1000 dilution) for each of Mcl-1, Bcl-2, Bid, PUMA and Bak proteins. The immunoreactive proteins after incubation with appropriately labeled secondary antibody (1:3000 dilution) were detected with an enhanced chemiluminescence detection kit (Amersham, Buckinghamshire, United Kingdom). […] These effects were correlated with the mitochondrial stress.
(§2) During G1 phase, cells grow in size and synthesize mRNA and proteins which are necessary to DNA synthesis. The serine/threonine kinases mTOR and p70S6K that regulate protein synthesis (mRNA translation) through affecting the phosphorylation or activities of several downstream translation factors are critical regulators in G1 phase. Protein expression assay of each Akt, mTOR 4E-BP1 and p70S6K was performed by Western blotting.

[3] = system: PC-3 cells; test: as above; assay type: cell-based, human
Method: as §1, §2

IC50 ([1]; PC-3, 48 h, PC-3 overexpressing constitutively active Myr-Akt, 48 hours, FIG. 4E, read-out: IC50, growth inhibition, SRB assay): 2180 ± 100 µM
IC50 ([1]; PC-3, 48 h, PC-3 without Myr-Akt overexpression, 48 hours, FIG. 4E, read-out: IC50, growth inhibition, SRB assay): 1970 ± 10 µM
IC50 ([1]; PC-3, PC-3, SRB assay, FIG. 1A, read-out: IC50, inhibition of cell growth): ~3000 µM
SMILES: Cc1ccc(S(N)(=O)=O)cc1 [p-TSA, para-toluenesulfonamide]
phosphorylation of Akt ([2]; DU-145, 6 mM p-TSA): not modified
p21 and p27 expression ([2]; DU-145, 6 mM p-TSA, FIG. 3A): neither p21 nor p27 expression was modified
phosphorylation of mTOR, 4E-BP1 and p70S6K ([2]; DU-145, 6 mM p-TSA, FIGS. 3B and 3C): inhibitory effect
expressions of PUMA and Bak ([2]; DU-145, 24 h, Western blot): increase
protein expression of Mcl-1 ([2]; DU-145, 24 h, Western blot, FIG. 2D): significantly decreased
cyclin D1 protein expression ([2]; Rb-mutant DU-145, 6 mM p-TSA, FIG. 3A): decrease
phosphorylation of Akt ([3]; PC-3, 6 mM p-TSA): inhibited
Rb phosphorylation ([3]; PC-3, 6 mM p-TSA, FIG. 3A): decrease
cyclin D1 protein expression ([3]; PC-3, 6 mM p-TSA, FIG. 3A): decrease
p21 and p27 expression ([3]; PC-3, 6 mM p-TSA, FIG. 3A): neither p21 nor p27 expression was modified
phosphorylation of mTOR, 4E-BP1 and p70S6K ([3]; PC-3, 6 mM p-TSA, FIGS. 3B and 3C): inhibitory effect
expressions of PUMA and Bak ([3]; PC-3, 24 h, Western blot): increase
